Earlier results, collected in US8735434B2, “Compounds as cannabinoid receptor ligands” (priority 2007, dated 2014).

Tests used:
animal models = details: acute thermal pain, persistent pain, inflammatory pain, neuropathic pain
rat = rat formalin model of persistent pain
microglial = details: in vitro
[1] = test system: apolipoprotein E knockout mice
mice = details: model for post-menopausal osteoporosis
rodent models = details: neuropathic, incisional, chronic and acute inflammatory pain

CN1CCCCC1Cn1cc(C(=O)c2cc([N+](=O)[O-])ccc2I)c2ccccc21 (stereo not drawn) [AM-1241]
analgesic efficacy (animal models): robust analgesic efficacy

CCCCCCC(C)(C)c1cc(OC)c([C@@H]2C=C(CO)[C@@H]3C[C@H]2C3(C)C)c(OC)c1 [HU-308]
antinociceptive response (rat): elicits an antinociceptive response

SR144528
block of the JWH-133 effects on microglial activation and neurotoxicity (microglial; against JWH-133): can be blocked | inhibition of the THC effects on atherosclerotic lesions ([1]; against THC): these effects were inhibited | effect on ovariectomy-induced bone loss (mice): reverse ovariectomy-induced bone loss | effect on osteoclast activity (osteoclast): inhibit osteoclast activity

CCCC(C)(C)c1ccc2c(c1)OC(C)(C)[C@@H]1CC=C(C)C[C@@H]21 [JWH-133]
effect on β-amyloid-induced microglial activation and neurotoxicity (microglial): abrogated

COc1ccc2c(c1)c(CCN1CCOCC1)c(C)n2C(=O)c1cccc(Cl)c1Cl [GW405833]
efficacy in pain models (rodent models): efficacious

(−)-Δ^9-Tetrahydrocannabinol [THC]
progression of atherosclerotic lesions ([1]; low doses): slowed the progression of atherosclerotic lesions
